Laboratory results: PubChem BioAssay AID1259332 (Broad Institute, 2017)
Activity calls are given as the source filed them. How the calls were made is not given here. Starred links: 1 amine or outer side, 2 acyl side, 3 side chain; linkers in the order of their positions; H or OH if unused. Positions of bridges follow the written chain, without caps; N, C: chain ends. Non-standard residues stand in square brackets, D forms with d. Residues, ends and D or L forms follow the SMILES beside them. Chains are numbered I, II in the order given. Actinocin(9to1) = Cc1c2oc3c(C)ccc(C(=O)[*:1])c3nc-2c(C(=O)[*:2])c(N)c1=O; NMeV = CN[CH](C(=O)O)C(C)C; Sar = CNCC(=O)O

tested on: B cell line, CD40 signaling inhibition reporter; assay: inhibitors of CD40 signaling, dose response, B cell lineage (AID 1259332);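 further: cells stimulated with CD40 ligand tCD40L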

Which AC50 does the source give for `Cc1c2oc3c(C)ccc(C(=O)OC(C)C4NC(=O)C(C(C)C)N(C)C(=O)CN(C)C(=O)C5CCCN5C(=O)C(C(C)C)NC4=O)c3nc-2c(C(=O)OC(C)C2NC(=O)C(C(C)C)N(C)C(=O)CN(C)C(=O)C3CCCN3C(=O)C(C(C)C)NC2=O)c(N)c1=O` (centres undefined) (I: cyclo([Sar][NMeV]TVP) / II: cyclo([Sar][NMeV]TVP); linker I:3-II:3 via Actinocin(9to1); configuration not given here) here?
Its AC50 is 0.0309 µM.

For `CC1=CC2OC3CC4OC(=O)C=CC=CC(=O)OCCC(C)C(O)C(=O)OCC2(CC1O)C4(C)C31CO1` (centres undefined), which AC50 is on record?
The AC50 was 0.0067 µM.

For `NC(=O)c1c(Br)n(C2OC(CO)C(O)C2O)c2ncnc(N)c12` (centres undefined), which AC50 is on record?
Its AC50 is 3.84 µM.

For `O=C1NC2C(=CC(O)C(O)C2O)c2cc3c(c(O)c21)OCO3` (centres undefined), which AC50 is on record?
Its AC50 is 0.0711 µM.

How did the AC50 turn out when `COCC(C)n1c(C)cc(C(=O)COC(=O)c2cccn2C)c1C` (centres undefined) was run?
The AC50 was 3.06 µM.

`C1CCC(C(CC2CCCCN2)C2CCCCC2)CC1` (centres undefined) was tested. Which AC50 did it give?
The AC50 was 2.39 µM.

How did the AC50 turn out when `O=C(Cc1ccccc1)N1CC[C@@H]2[C@H]1c1cc(C#Cc3cccc(F)c3)ccc1N[C@@H]2CO` was run?
Its AC50 is 5.19 µM.

For `CN1C(=O)c2cc(NC(=O)c3cccc(Cl)c3)ccc2OC[C@@H]2O[C@@H](CC(=O)NC3CCCCC3)CC[C@H]21`, which AC50 is on record?
Its AC50 is > 20 µM (inactive).

With `C=C1C(=O)OC2C=C(CO)C3OC3C3OC3(C)CC(OC(=O)/C(=C/C)COC(C)=O)C12` (centres undefined) as the compound, how does the AC50 read?
The AC50 was 2.02 µM.

For `Fc1ccccc1CNCCC(Cc1ccccc1)c1ccc2c(c1)OCO2` (centres undefined), which AC50 is on record?
Its AC50 is 5.98 µM.

Which AC50 does the source give for `CCCC(=O)NC1=C(Cl)C(=O)c2ccccc2C1=O` here?
The AC50 was 0.935 µM.

Which AC50 does the source give for `N#C[C@H]1[C@H](c2ccc(C#Cc3ccccc3F)cc2)[C@@H](CO)N1C(=O)C1CC1` here?
The AC50 was > 20 µM (inactive).

`CCN1/C(=C/c2sc(-c3ccccc3C)c[n+]2C)Sc2ccccc21` was tested. Which AC50 did it give?
Its AC50 is 1.91 µM.

For `COc1ccc(CC2C(=O)NC(C)C(=O)N(C)C3C(=O)N(C)C(Cc4ccc(O)c(c4)Oc4ccc(cc4)C3O)C(=O)NC(C)C(=O)NC(C)C(=O)N2C)cc1` (centres undefined), which AC50 is on record?
The AC50 was 0.00902 µM.

Which AC50 does the source give for `N#C[C@@H]1[C@H](c2ccc(C#CC3CCCCC3)cc2)[C@@H](CO)N1S(=O)(=O)c1ccccc1` here?
Its AC50 is 2.28 µM.

How did the AC50 turn out when `N#C[C@@H]1[C@@H](c2ccccc2-c2ccc(F)cc2)[C@H](CO)N1C(=O)NC1CCCCC1` was run?
The AC50 was > 22 µM (inactive).

How did the AC50 turn out when `COc1ccc2c3c(n(C)c2c1)[C@H](CO)N(C(=O)Nc1ccc(F)cc1)CC31CCN(C(=O)Nc2ccc(F)cc2F)CC1` was run?
The AC50 was > 7 µM (inactive).

How did the AC50 turn out when `O=C1/C(=C/c2ccccc2)C[C@@]2(O)C3Cc4ccc(O)c5c4[C@@]2(CCN3CC2CC2)[C@H]1O5` was run?
Its AC50 is 1.75 µM.

Which AC50 does the source give for `C[C@H](CO)N1C[C@H](C)[C@H](CN(C)S(=O)(=O)c2ccc([N+](=O)[O-])cc2)OCc2ccccc2-c2c(n(C)c3ccccc23)C1=O` here?
The AC50 was 9.57 µM.

`O=C(C[C@@H]1C[C@H]2c3cc(NC(=O)Nc4ccc(C(F)(F)F)cc4)ccc3O[C@H]2[C@H](CO)O1)NCc1cc(F)ccc1F` was tested. Which AC50 did it give?
Its AC50 is > 20 µM (inactive).

`O=S(=O)(/C(=C\c1ccc(C(F)(F)F)cc1)c1nc2ccccc2[nH]1)c1ccccc1` was tested. Which AC50 did it give?
The AC50 was 2.26 µM.

How did the AC50 turn out when `O=S(c1ccccc1O)S(=O)c1ccccc1O` (centres undefined) was run?
Its AC50 is 4.55 µM.

How did the AC50 turn out when `COc1ccc2c3c([nH]c2c1)[C@H](CO)N(C(=O)Nc1cccc(F)c1)CC31CCN(S(=O)(=O)c2cccc(C)c2)CC1` was run?
Its AC50 is > 20 µM (inactive).

`CC(=O)O[C@H]1C[C@H](O[C@H]2[C@@H](O)C[C@H](O[C@H]3[C@@H](O)C[C@H](O[C@H]4CC[C@@]5(C)C(CCC6C5C[C@@H](O)[C@]5(C)[C@@H](C7=CC(=O)OC7)CC[C@]65O)C4)O[C@@H]3C)O[C@@H]2C)O[C@H](C)[C@H]1O[C@@H]1O[C@H](CO)[C@@H](O)[C@H](O)[C@H]1O` (some centres undefined) was tested. Which AC50 did it give?
The AC50 was 0.909 µM.

`C[C@H]1CN([C@@H](C)CO)C(=O)c2c(c3ccccc3n2C)-c2ccccc2CO[C@H]1CN(C)C(=O)Nc1ccccc1C(F)(F)F` was tested. Which AC50 did it give?
The AC50 was > 20 µM (inactive).

With `COc1cc(C(=O)CCN2CCC(c3ccccc3)C2)cc(OC)c1OC` (centres undefined) as the compound, how does the AC50 read?
The AC50 was 5.51 µM.

`COc1ccc(C#Cc2ccc([C@H]3[C@H]4CN(C(=O)c5ccncc5)CCCCN4[C@H]3CO)cc2)cc1` was tested. Which AC50 did it give?
The AC50 was 11.2 µM.

With `COc1cccc(S(=O)(=O)N(C)C[C@H]2OCc3ccccc3-c3c(n(C)c4ccccc34)C(=O)N([C@H](C)CO)C[C@@H]2C)c1` as the compound, how does the AC50 read?
Its AC50 is > 7 µM (inactive).

With `COC(=O)c1nn(-c2ccc(-c3ccccc3)cc2)cc1O` as the compound, how does the AC50 read?
The AC50 was 8.42 µM.
